Experiments:
Rv2067c [1] = biological target: T1, Rv2067c (Mycobacterium tuberculosis, UniProt P9WLL9)
Rv2067c [2] = biological target: T1, Rv2067c; remark: listed apart in the source

T1 sequence (P9WLL9 whole entry): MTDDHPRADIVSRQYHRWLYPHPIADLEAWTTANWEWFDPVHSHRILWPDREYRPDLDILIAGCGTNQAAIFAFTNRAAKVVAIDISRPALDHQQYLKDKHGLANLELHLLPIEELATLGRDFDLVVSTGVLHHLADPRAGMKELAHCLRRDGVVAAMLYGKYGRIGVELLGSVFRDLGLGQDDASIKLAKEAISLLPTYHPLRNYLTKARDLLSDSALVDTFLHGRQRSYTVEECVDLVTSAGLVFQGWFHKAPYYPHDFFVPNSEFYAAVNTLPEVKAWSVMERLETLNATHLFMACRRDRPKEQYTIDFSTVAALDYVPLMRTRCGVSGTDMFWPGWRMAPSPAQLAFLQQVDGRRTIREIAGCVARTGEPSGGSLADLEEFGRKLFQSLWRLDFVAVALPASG

| SMILES | radiometric methyltransferase assay (scintillation counting, autoradiography) (Rv2067c [1]) | X-ray crystallography, 2.40 Å (Rv2067c [2]) |
| --- | --- | --- |
| C[S+](CC[C@H](N)C(=O)O)C[C@H]1O[C@@H](n2cnc3c(N)ncnc32)[C@H](O)[C@@H]1O (stereo partly drawn) [S-Adenosyl-L-methionine] | Rv2067c as MTase, and tritiated SAM as a methyl donor, methylation of histones was detected | – |
| Nc1ncnc2c1ncn2[C@@H]1O[C@H](CSCC[C@H](N)C(=O)O)[C@@H](O)[C@H]1O [S-adenosyl-L-homocysteine] | – | The coordinates for Rv2067c-SAH structure have been deposited in the Protein Data Bank |

— paper PMC10739865, “The Mycobacterium tuberculosis methyltransferase Rv2067c manipulates host epigenetic programming to promote its own survival” (Nature Communications, 2023)
